PMC10409285 (PLOS Pathogens, 2023)
No end group written: not given here.

The compounds below were run against DP4.1 (HLA-DPA1*01:03/DPB1*04:01) (Homo sapiens, UniProt P04440+P20036) (assay: fluorescence polarization competition binding assay, DP4.1). Details: not given.

Compound	IC50 [µM]
NRGRQFYEFYNDVKPP [Peptide P14]	5.14
CC[C@H](C)[C@H](N)C(=O)N[C@@H](Cc1c[nH]cn1)C(=O)N[C@@H](Cc1ccccc1)C(=O)N[C@@H](CO)C(=O)N[C@@H](Cc1ccc(O)cc1)C(=O)N[C@H](C(=O)N1CCC[C@H]1C(=O)N[C@H](C(=O)N[C@@H](CCCCN)C(=O)N[C@@H](Cc1ccc(O)cc1)C(=O)N[C@H](C(=O)N[C@H](C(=O)N[C@@H](C)C(=O)N[C@@H](CCCNC(=N)N)C(=O)N[C@H](C(=O)N[C@@H](CO)C(=O)N1CCC[C@H]1C(=O)NCC(=O)O)C(C)C)[C@@H](C)O)C(C)C)[C@@H](C)O)C(C)C [Peptide P7]	9.44
CC(C)C[C@H](NC(=O)CNC(=O)[C@H](CO)NC(=O)[C@@H](NC(=O)[C@@H](NC(=O)[C@@H](NC(=O)[C@H](CCCCN)NC(=O)[C@H](CO)NC(=O)[C@H](Cc1ccccc1)NC(=O)[C@H](CC(C)C)NC(=O)[C@H](CC(C)C)NC(=O)[C@H](CC(=O)O)NC(=O)[C@H](CCC(=O)O)NC(=O)[C@H](CC(C)C)NC(=O)[C@H](C)NC(=O)[C@@H](N)CO)C(C)C)C(C)C)[C@@H](C)O)C(=O)NCC(=O)O [NL63-146]	3.48
CC[C@H](C)[C@H](NC(=O)[C@H](Cc1ccccc1)NC(=O)[C@H](Cc1ccc(O)cc1)NC(=O)[C@H](CC(C)C)NC(=O)CNC(=O)[C@H](Cc1ccc(O)cc1)NC(=O)[C@@H]1CCCN1C(=O)[C@H](C)N)C(=O)N[C@@H](Cc1c[nH]cn1)C(=O)N[C@@H](Cc1ccccc1)C(=O)N[C@@H](CO)C(=O)N[C@@H](Cc1ccc(O)cc1)C(=O)N[C@H](C(=O)N1CCC[C@H]1C(=O)N[C@H](C(=O)N[C@@H](CCCCN)C(=O)O)[C@@H](C)O)C(C)C [Peptide P6]	80.5
CC[C@H](C)[C@H](NC(=O)[C@H](C)NC(=O)[C@H](CO)NC(=O)[C@H](CCCNC(=N)N)NC(=O)CNC(=O)[C@H](C)NC(=O)[C@@H](NC(=O)[C@@H](N)CCCNC(=N)N)C(C)C)C(=O)N[C@@H](CCC(=O)O)C(=O)N[C@@H](CC(=O)O)C(=O)N[C@H](C(=O)N[C@@H](CC(C)C)C(=O)N[C@@H](Cc1ccccc1)C(=O)N[C@@H](CO)C(=O)N[C@@H](CCCCN)C(=O)N[C@@H](CC(C)C)C(=O)N[C@H](C(=O)O)C(C)C)[C@@H](C)CC [Peptide 229E-115]	5.99
CC(C)C[C@H](NC(=O)[C@H](CCCCN)NC(=O)[C@@H](NC(=O)[C@H](CCCCN)NC(=O)[C@H](CC(=O)O)NC(=O)[C@H](Cc1ccccc1)NC(=O)[C@H](CC(C)C)NC(=O)[C@H](CC(C)C)NC(=O)[C@H](CC(=O)O)NC(=O)[C@H](CCC(=O)O)NC(=O)[C@H](Cc1ccccc1)NC(=O)[C@H](Cc1ccccc1)NC(=O)[C@H](CO)NC(=O)[C@H](CCCNC(=N)N)NC(=O)[C@H](CO)NC(=O)[C@H](CO)NC(=O)[C@@H](N)CO)C(C)C)C(=O)O [HKU1-151]	2.57
CC[C@H](C)[C@H](NC(=O)[C@H](C)NC(=O)[C@H](CO)NC(=O)[C@@H](N)CCCNC(=N)N)C(=O)N[C@@H](CCC(=O)O)C(=O)N[C@@H](CC(=O)O)C(=O)N[C@@H](CC(C)C)C(=O)N[C@@H](CC(C)C)C(=O)N[C@@H](Cc1ccccc1)C(=O)N[C@@H](CC(=O)O)C(=O)N[C@@H](CCCCN)C(=O)N[C@H](C(=O)N[C@@H](CCCCN)C(=O)N[C@@H](CC(C)C)C(=O)N[C@@H](CO)C(=O)O)C(C)C [Peptide P4]	2.99

Same assay, conditions: fluorescence polarization competition; soluble DP4.1-Clip 250 nM, 25 nM Alexa488 oxytocinase probe peptide, 500 nM HLA-DM, 24 h 37°C; mean of two independent experiments; read-out: Mean IC50, DPA*01:03/DPB1*04:01

Compound	IC50 [µM]
YVYSRVKNLNSSRVPDL [E#9 (CoV2)]	661
CC(C)C[C@H](NC(=O)[C@H](Cc1ccccc1)NC(=O)[C@@H](N)C(C)C)C(=O)N[C@@H](Cc1c[nH]cn1)C(=O)N[C@H](C(=O)N[C@H](C(=O)N[C@@H](Cc1ccc(O)cc1)C(=O)N[C@H](C(=O)N1CCC[C@H]1C(=O)N[C@@H](C)C(=O)N[C@@H](CCC(N)=O)C(=O)N[C@@H](CCC(=O)O)C(=O)N[C@@H](CCCCN)C(=O)N[C@@H](CC(N)=O)C(=O)N[C@@H](Cc1ccccc1)C(=O)N[C@H](C(=O)O)[C@@H](C)O)C(C)C)[C@@H](C)O)C(C)C [S#213 (CoV2)]	242
